According to patent US5747538A, “Use of ginsenoside R0 or a plant extract containing same to promote collagen synthesis” (priority 1994, dated 1998):
Like-named read-outs stand apart in the source and are kept apart here.

Legend:
[1] = tested on: collagen I; experiment: ELISA measurement of collagen I synthesis (collagen I secreted into the medium) in fibroblast culture, 48 h; assay type: cell-based, human; settings: for ng collagen I/10^4 cells/48 h: mean±SD, control 2004 ± 132; for ng coll. I/10,000 HF/48 h: control (Asc. 25 μM + DMSO 0.1%) 2466 ± 289
Experimental: An ELISA method is used to measure collagen I synthesis, with and without treatment, on a culture of fibroblasts originating from a face lift performed on a person.
a.1) Fibroblast cultures:
The fibroblasts are cultivated by the explant method up to the point of confluence, at 37° C., in a medium consisting of a mixture of E199-C medium and 10% fetal calf serum, in a humidity-saturated atmosphere containing 5% of CO2.
Then, after detachment with an isotonic solution containing 0.1% of trypsin and 0.02% of EDTA, buffered to pH 7.2, the cells are inoculated into 96-well microplates (FALCON) at a rate of 10^4 cells per well in an E199-C medium containing 2% of serum.
After 24 h this medium is replaced, for 48 h of incubation, with the same medium without serum and containing 25 μM sodium ascorbate (incubation medium), with or without the test products. The products, solubilized in DMSO, are added to the culture medium at different concentrations.
a.2) Assay of collagen I:
The amount of collagen I secreted into the medium after 48 h of incubation with or without the products was determined by means of an ELISA (Enzyme-Linked Immuno Sorbent Assay) test.
The incubation medium is collected and transferred to the wells of a microtiter plate (Nunc Immunoplate) containing protease inhibitors. Incubation for 24 h at 4° C. allows the collagen to adhere to the plastic. The plates are then rinsed with PBS (Phosphate Buffered Saline).
After 24 h of incubation at 4° C. with serum albumin to prevent non-specific antibody-plastic binding, anti-human collagen I rabbit antibodies (Institut Pasteur, Lyon, France) are added over 1.5 h at 22° C. After rinsing with PBS, the bound antibodies are disclosed with anti-rabbit IgG goat antibodies (INTERCHIM, Montlugon, France) conjugated with an alkaline phosphatase, which, in the presence of paranitrophenyl phosphate, will produce a paranitrophenol absorbing at 405 nm.
The optical densities obtained are converted to nanograms of collagen using a calibration curve established under the same experimental conditions with purified human collagen I (Institut Jacques Boy, France).
a.3) Statistical interpretation:
The amounts of collagen (mean±standard deviation) secreted by the treated and untreated cells are compared by means of a Student t test. The significance level is taken as 0.05.
b.1) The protocol described above is applied in order to study the effect of the concentration of ginsenoside R0 on the stimulation of collagen I synthesis.
Table 1 gives the results obtained with compositions respectively containing 0, 1, 2.5 and 10 μg of ginsenoside R0 per ml.

[2] = tested on: collagen III; experiment: ELISA measurement of collagen III synthesis in fibroblast culture, 72 h; assay type: cell-based; settings: Homo sapiens, read-out: stimulation of synthesis of collagen III
Experimental: The protocol is the same as that described with collagen I except that the ELISA is directed against collagen III (human) and the culture treatment time is 72 h instead of the 48 h with collagen I.

CC1(C)CC[C@]2(C(=O)O[C@@H]3O[C@H](CO)[C@@H](O)[C@H](O)[C@H]3O)CC[C@]3(C)C(=CC[C@@H]4[C@@]5(C)CC[C@H](O[C@@H]6O[C@H](C(=O)O)[C@@H](O)[C@H](O)[C@H]6O[C@@H]6O[C@H](CO)[C@@H](O)[C@H](O)[C@H]6O)C(C)(C)[C@@H]5CC[C@]43C)[C@@H]2C1 [ginsenoside R0]
activation at 1 µg/mL ([1]; Homo sapiens, Fibroblast, 48 h, Table 1, 1 μg/ml, S: significant at the 0.05 level, read-out: Stimulation of synthesis (collagen I)): 8%
activation at 2.5 µg/mL ([1]; Homo sapiens, Fibroblast, 48 h, Table 1, 2.5 μg/ml, S: significant at the 0.05 level, read-out: Stimulation of synthesis (collagen I)): 29%
activation at 10 µg/mL ([1]; Homo sapiens, Fibroblast, 48 h, Table 1, 10 μg/ml, S: significant at the 0.05 level, read-out: Stimulation of synthesis (collagen I)): 44%
activation at 1 µg/mL ([1]; Homo sapiens, Fibroblast, 48 h, Table 2, 1 μg/ml, Example 1 S (p = 0.021), Example 2 S (p = 0.0006), ginsenoside R0 NS, read-out: % stimulation/control (collagen I)): 1%
activation at 1.5 µg/mL ([1]; Homo sapiens, Fibroblast, 48 h, Table 2, 1.5 μg/ml, S (p = 0.024), read-out: % stimulation/control (collagen I)): 43%
activation at 10 µg/mL ([1]; Homo sapiens, Fibroblast, 48 h, Table 2, 10 μg/ml, Example 1 S (p = 0.003), Example 2 S (p = 0.0006), ginsenoside R0 S (p = 0.002), read-out: % stimulation/control (collagen I)): 66%
ng collagen I/10^4 cells/48 h ([1]; Table 1, 1 μg/ml): 2172 ± 88 ng collagen I/10^4 cells/48 h
ng collagen I/10^4 cells/48 h ([1]; Table 1, 2.5 μg/ml): 2599 ± 163 ng collagen I/10^4 cells/48 h
ng collagen I/10^4 cells/48 h ([1]; Table 1, 10 μg/ml): 2889 ± 74 ng collagen I/10^4 cells/48 h
ng coll. I/10,000 HF/48 h ([1]; Table 2, 1 μg/ml): 2482 ± 276 ng coll. I/10,000 HF/48 h
ng coll. I/10,000 HF/48 h ([1]; Table 2, 1.5 μg/ml): 3529 ± 516 ng coll. I/10,000 HF/48 h
ng coll. I/10,000 HF/48 h ([1]; Table 2, 10 μg/ml): 4099 ± 480 ng coll. I/10,000 HF/48 h
activation at 2.5 µg/mL ([2]; 2.5 μg/ml): 33%
activation at 10 µg/mL ([2]; 10 μg/ml): 81%
